Measurements: US20190136188A1, “4HPR AND ITS USE IN THE CULTURING OF HEMATOPOIETIC STEM CELLS” (UNIVERSITY HEALTH NETWORK, priority 2016, published 2019)

How the values were obtained:
[1] = test system: ex vivo expanded human CB cells in NSG mice; experiment: Primary xenotransplantation of ex vivo expanded CB cells, 16 weeks
From the text: (A) Experimental scheme (B) Representative FACS analysis data of in vitro culture for 16 HSC dose time course (n=3). The number of (C) viable cells, (D) CD15+ myeloid cells, (E) GlyA+ erythroid cells, and (F) CD34+ primitive cells measured for the 16 LTRC dose with HTS flow cytometry analysis at day 8 post-treatment for vehicle control or 4HPR prior to xenotransplantation (n=5 biological replicates, 4 in technical triplicate, marked with different symbols). (G) Human CD45+ engraftment at 16 weeks post transplant in injected femur (n=4, 5 mice/biological experiment). Lineage analysis of control or 4HPR transplanted mice from FIG. 5G for (H) B lymphoid, (I) myeloid, (J) erythroid, and (K) primitive CD34+ at the 16 LTRC dose. (L) CD45+ cells were isolated from 5 biological experiments of the 16 LTRC dose primary mice and transplanted at limiting doses into secondary recipients for 16 weeks. Human CD45+ marking of >0.1% was considered positive for secondary engraftment. Limiting dilutation analysis was performed using ELDA software and the long-term repopulating cell (LTRC) frequency for each biological replicate plotted and the average LTRC frequency calculated.
All bones for each mouse were pooled following chimerism analysis and frozen for subsequent CD34 hierarchy analysis. Flow cytometry analysis were performed on CD34+ enriched cells using Miltenyl human CD34 enrichment protocol on thawed samples for the human CB hierarchy at the 16 HSC dose from 4 biological experiments, marked with different symbols (n=4 mice per biological experiment). The number of (B) CD34+CD19− cells, (C) CD34+CD38-, (D) CD34+CD38+, (E) HSC, (F) MPP, (G) MLP, and (I) GMP were quantitated from each mouse at 16 weeks post-transplant. Representative HSC hierarchy analysis scheme of CD34 enriched cells isolated from mice 16 weeks post-transplantation engrafted with ex vivo cultured CB cells in the presence of (J) vehicle control (black) or (K) 4HPR (green).
(A) The number of cells following 8 days of ex vivo culture at the 16 LTRC dose grown as in FIG. 5A for the indicated drug treatments (n=2). […] (2 biological replicates) (E) CD45+ cells were isolated from 2 biological experiments of the 16 LTRC dose primary mice and transplanted at limiting doses into secondary recipients for 16 weeks. […] Limiting dilutation analysis was performed using ELDA software and the long-term repopulating cell (LTRC) frequency for each biological replicate plotted and the average LTRC frequency calculated.
To determine if 4HPR preserves functional HSC in CB liquid culture, we devised an experimental protocol to test the effect of 4HPR treatment in short-term ex vivo expansion culture on repopulation in serial NSG xenotransplantation to functionally read out LT-HSC (FIG. 5A). […]

[2] = test system: CD34+CD38- (stem) and CD34+CD38+ (prog) cells; experiment: LC3II immunofluorescence with and without Baflomycin A1 (autophagy); type: cell-based, human; settings: day 2, 2 uM 4HPR, in the presence of BAF; stem vs prog
Protocol: (A) Representative mmunofluorescence images taken by confocal microscopy for DAPI (blue) and LC3II staining (green) for CD34+CD38− cells (stem) following 2 days of treatment with DMSO control or 2 uM 4HPR with and without the autophagy inhibitor baflomycin A1 (BAF) to assay for basal autophagy and autophagic flux. (B) Quantitation of LC3II foci area as a percentage of total cell area for stem and prog (CD34+38+) cells from three independent CB using R and Image J software. (C) LCII foci area is increased with 4HPR treatment relative to control in the presence of BAF only in stem populations and not Prog populations. (D) Representative flow cytometry histogram plot of cyto-ID fluorescence intensity of control (black) and 4HPR (green) treated stem cells to assay for autophagic flux. Lower mean fluorescence intensity (MFI) indicates more turnover of autophagosomes and thus increased autophagic flux. […] (F) Cytokine withdrawal for 3 hours activates autophagic flux in CB stem cells to similar levels as 2 uM 4HPR as assayed by cyto-ID flow cytometry at day 2 post-treatment (n=3).
We hypothesize that such selective enhancement of CFC cloning efficiency with 4HPR treatment is a result of activating autophagy in HSC in human CB. Warr et all had previously shown that mouse HSC, but not comitted progenitors activate autophagy under stress stimuli. […]

CC1=C(/C=C/C(C)=C/C=C/C(C)=C/C(=O)Nc2ccc(O)cc2)C(C)(C)CCC1 [4HPR, N-(4hydroxyphenyl)retinamide]
lineage distribution for B lymphoid, myeloid and erythroid ([1]; 16 HSC dose, 16 weeks): comparable between ctrl and 4HPR transplanted cells
primitive lineage negative CD34+ cells in transplanted mice ([1]; 16 LTRC dose, 16 weeks): equally prevalent
human CD45 chimerism ([1]; 16 weeks post transplant, all cell doses): the same CD45 chimerism as vehicle control
HSPC populations of the HSC hierarchy in individual mice ([1]; 16 weeks post-transplant, control vs 4HPR expanded cells): on average identical
LC3II foci area relative to ctrl (upregulation of autophagy) [2]: only 4HPR-treated stem cells, but not prog cells exhibit an upregulation of autophagy
